Results on eight molecules are retold here after DBAASP.

Common to all, as to experiment: ≥ marks a high value that may be exact or a test limit, other limits are often not marked, values filed in µg/mL are converted to µM
The subject of experiment [1] is Escherichia coli W3110.
Experiment [2] deals with Klebsiella pneumoniae ATCC BAA-1705.
For experiment [3], the system named is Staphylococcus aureus 113.
In experiment [4] the test system is Staphylococcus aureus 75.
The test system of experiment [5] is Acinetobacter baumannii ATCC 19606.
Experiment [6] has as its system Acinetobacter baumannii 9931.
In experiment [7] the test system is Staphylococcus aureus ATCC 29213.
The test system of experiment [8] is Pseudomonas aeruginosa ATCC 27853.
In experiment [9] the test system is Acinetobacter baumannii 97830.
Experiment [10] has as its system Pseudomonas aeruginosa 50.
Experiment [11] relates to Escherichia coli 804.
The subject of experiment [12] is Escherichia coli 780.
The subject of experiment [13] is Bacillus subtilis ATCC 23857.
For experiment [14], the system named is Staphylococcus epidermidis ATCC 12228.
Experiment [15] relates to Pseudomonas aeruginosa ATCC 9027.
Experiment [16] concerns Pseudomonas aeruginosa 73.
The subject of experiment [17] is Klebsiella pneumoniae ATCC 700603.
The subject of experiment [18] is Staphylococcus epidermidis.
The test system of experiment [19] is Escherichia coli UB1005.
In experiment [20] the test system is Salmonella enterica serovar Typhimurium.
Experiment [21] deals with Pseudomonas aeruginosa H103.
In experiment [22] the test system is Pseudomonas aeruginosa 919.
The subject of experiment [23] is Enterococcus faecalis ATCC 29212.
The test system of experiment [24] is Candida albicans.
In experiment [25] the test system is Pseudomonas aeruginosa 910.
Experiment [26] deals with Pseudomonas aeruginosa 253.
For experiment [27], the system named is Pseudomonas aeruginosa PAO1.
In experiment [28] the test system is Staphylococcus aureus ATCC 25923.
The test system of experiment [29] is Escherichia coli ATCC 25922.
In experiment [30] the test system is Shigella dysenteriae ATCC 51302.
Experiment [31] relates to Bacillus subtilis ATCC 9372.
In experiment [32] the test system is Streptococcus pneumoniae ATCC 49619.
In experiment [33] the test system is Salmonella typhimurium ATCC 50013.

Converted amounts (≈) assume the structure as drawn.

A word on the MIC: it is the lowest concentration found to suppress growth. Low values mean a more susceptible organism, high ones a less susceptible organism. Turning to `CC[C@H](C)[C@H](N)C(=O)N[C@@H](CC(C)C)C(=O)N[C@H](C(=O)N[C@@H](C)C(=O)N[C@@H](CS)C(=O)N[C@@H](Cc1c[nH]c2ccccc12)C(=O)NCC(=O)N[C@@H](CC(C)C)C(=O)N[C@@H](CCCCN)C(=O)N[C@@H](CC(C)C)C(=O)N[C@@H](CC(C)C)C(=O)N[C@@H](CCCN=C(N)N)C(=O)N[C@@H](Cc1ccc(O)cc1)C(=O)N[C@@H](CCCN=C(N)N)C(=O)N[C@@H](CCCN=C(N)N)C(=O)N[C@H](C(=O)N[C@@H](Cc1ccc(O)cc1)C(=O)O)[C@@H](C)CC)[C@@H](C)CC` [ILIACWGLKLLRYRRIY], the MIC was 4 µM (≈ 8.6 µg/mL) in experiment [1] and no less than 128 µM in experiment [2].

On to `CC[C@H](C)[C@H](NC(=O)[C@H](CCCCN)NC(=O)[C@H](CCCCN)NC(=O)[C@H](Cc1c[nH]c2ccccc12)NC(=O)[C@H](CCCCN)NC(=O)[C@H](Cc1c[nH]c2ccccc12)NC(=O)[C@H](CC(C)C)NC(=O)[C@H](CCCCN)NC(=O)[C@H](CC(C)C)NC(=O)CNC(=O)[C@H](Cc1c[nH]c2ccccc12)NC(=O)[C@H](CCCCN)NC(=O)[C@H](C)NC(=O)[C@H](Cc1c[nH]c2ccccc12)NC(=O)[C@H](CCCN=C(N)N)NC(=O)[C@@H](N)Cc1c[nH]c2ccccc12)C(=O)N[C@@H](Cc1ccc(O)cc1)C(=O)O` [WRWAKWGLKLWKWKKIY], for which the MIC in [1] was 2 µM (≈ 4.75 µg/mL); in experiment [2], 16 µM (≈ 38 µg/mL).

As for `CC[C@H](C)[C@H](N)C(=O)N[C@@H](CCCN=C(N)N)C(=O)N[C@@H](Cc1c[nH]c2ccccc12)C(=O)N[C@@H](Cc1c[nH]c2ccccc12)C(=O)N[C@@H](Cc1c[nH]c2ccccc12)C(=O)N[C@@H](CCCN=C(N)N)C(=O)N[C@H](C(N)=O)[C@@H](C)CC` [IRWWWRI], the MIC in [3] was 8 µM (≈ 8.91 µg/mL); in experiment [4], 8 µM (≈ 8.91 µg/mL); in experiment [5], 64 µM (≈ 71.3 µg/mL); in experiment [6], no less than 32 µM; in experiment [7] it was 4 µM (≈ 4.46 µg/mL); in [8], 16 µM (≈ 17.8 µg/mL). For the same molecule, the MIC was no less than 32 µM in experiment [9]; no less than 32 µM in [10]; 16 µM (≈ 17.8 µg/mL) in experiment [11]; 16 µM (≈ 17.8 µg/mL) in experiment [12]; 8 µM (≈ 8.91 µg/mL) in experiment [13]; 8 µM (≈ 8.91 µg/mL) in experiment [14]. The MIC in experiment [15] is 32 µM (≈ 35.7 µg/mL); in experiment [16], no less than 32 µM; in [17], 32 µM (≈ 35.7 µg/mL).

With `NC(=O)[C@H](Cc1ccccc1)NC(=O)[C@H](CCCN=C(N)N)NC(=O)[C@H](CCCN=C(N)N)NC(=O)[C@H](Cc1c[nH]c2ccccc12)NC(=O)[C@H](Cc1c[nH]c2ccccc12)NC(=O)[C@H](Cc1c[nH]c2ccccc12)NC(=O)[C@H](CCCN=C(N)N)NC(=O)[C@H](CCCN=C(N)N)NC(=O)[C@@H](N)Cc1ccccc1` [FRRWWWRRF], the MIC in [3] stood at 8 µM (≈ 12 µg/mL); in [4], 4 µM (≈ 5.98 µg/mL); in experiment [5], 16 µM (≈ 23.9 µg/mL); in experiment [6], 16 µM (≈ 23.9 µg/mL); in [7] it was 4 µM (≈ 5.98 µg/mL); in experiment [8], 4 µM (≈ 5.98 µg/mL). Besides, the MIC came to 8 µM (≈ 12 µg/mL) in experiment [9]; 4 µM (≈ 5.98 µg/mL) in experiment [10]; 16 µM (≈ 23.9 µg/mL) in [11]; 16 µM (≈ 23.9 µg/mL) in [12]; 2 µM (≈ 2.99 µg/mL) in [13]; 8 µM (≈ 12 µg/mL) in [14]. Further, the MIC was 8 µM (≈ 12 µg/mL) in [15], 16 µM (≈ 23.9 µg/mL) in experiment [16] and 16 µM (≈ 23.9 µg/mL) in experiment [17].

Turning to `C[C@H](N)C(=O)N[C@@H](Cc1c[nH]c2ccccc12)C(=O)N[C@@H](CCCN=C(N)N)C(=O)N[C@@H](Cc1c[nH]c2ccccc12)C(=O)N[C@@H](Cc1c[nH]c2ccccc12)C(=O)N[C@@H](Cc1c[nH]c2ccccc12)C(=O)N[C@@H](CCCN=C(N)N)C(=O)N[C@@H](Cc1c[nH]c2ccccc12)C(=O)N[C@@H](C)C(N)=O` [AWRWWWRWA], the MIC in experiment [3] is 8 µM (≈ 11.2 µg/mL); in experiment [4], 4 µM (≈ 5.61 µg/mL); in [5], 32 µM (≈ 44.9 µg/mL); in [6], no less than 32 µM; in experiment [7] it was 8 µM (≈ 11.2 µg/mL); in [8], 32 µM (≈ 44.9 µg/mL). Further, the MIC in [9] was 8 µM (≈ 11.2 µg/mL); in [10], no less than 32 µM; in [11], 8 µM (≈ 11.2 µg/mL); in experiment [12], 16 µM (≈ 22.4 µg/mL); in experiment [13] it was 8 µM (≈ 11.2 µg/mL); in experiment [14] it was 8 µM (≈ 11.2 µg/mL). Besides, the MIC was 32 µM (≈ 44.9 µg/mL) in [15], no less than 32 µM in experiment [16] and 8 µM (≈ 11.2 µg/mL) in [17].

With `CC[C@H](C)[C@H](N)C(=O)N[C@@H](Cc1c[nH]c2ccccc12)C(=O)N[C@@H](Cc1c[nH]c2ccccc12)C(=O)N[C@@H](C)C(=O)N[C@@H](CCCCN)C(=O)N[C@@H](Cc1c[nH]c2ccccc12)C(=O)NCC(=O)N[C@@H](CC(C)C)C(=O)N[C@@H](CC(=O)O)C(=O)N[C@@H](CC(C)C)C(=O)N[C@@H](CC(C)C)C(=O)N[C@@H](CCCN=C(N)N)C(=O)N[C@@H](Cc1ccc(O)cc1)C(=O)N[C@@H](CCCN=C(N)N)C(=O)N[C@@H](CCCN=C(N)N)C(=O)N[C@H](C(=O)N[C@@H](Cc1c[nH]c2ccccc12)C(=O)O)[C@@H](C)CC` [IWWAKWGLDLLRYRRIW], the results for the MIC in experiment [1] and in experiment [2] were no less than 64 µM and no less than 128 µM, respectively.

Take `CC[C@H](C)[C@H](NC(=O)[C@H](CCCN=C(N)N)NC(=O)[C@H](C)NC(=O)CNC(=O)[C@@H](N)CCCN=C(N)N)C(=O)N[C@H](C(=O)N[C@H](C(=O)N[C@H](C(=O)N[C@@H](CCCN=C(N)N)C(=O)N[C@H](C(=O)N[C@@H](C)C(=O)N[C@@H](CCCN=C(N)N)C(N)=O)C(C)C)[C@@H](C)CC)C(C)C)C(C)C` [RGARIVVIRVAR]: the MIC in [18] was 11.7 µM (≈ 16 µg/mL); in experiment [19], 5.86 µM (≈ 7.99 µg/mL); in experiment [20], 22.7 µM (≈ 31 µg/mL); in experiment [21] it was 22.7 µM (≈ 31 µg/mL); in experiment [22] it was 16 µM (≈ 21.8 µg/mL); in [23] it was 22.7 µM (≈ 31 µg/mL). Also, the MIC in experiment [24] was 11.7 µM (≈ 16 µg/mL); in [25], no less than 32 µM; in [26], no less than 32 µM; in [27], 32 µM (≈ 43.7 µg/mL); in experiment [28] it was 22.7 µM (≈ 31 µg/mL).

On to `CC(C)C[C@H](NC(=O)CN)C(=O)N[C@@H](CO)C(=O)N[C@@H](CCCN=C(N)N)C(=O)N[C@@H](CC(C)C)C(=O)N[C@@H](Cc1ccccc1)C(=O)N[C@H](C(=O)N[C@@H](C)C(=O)N[C@@H](CC(C)C)C(=O)N[C@@H](CCCCN)C(=O)O)[C@@H](C)O` [GLSRLFTALK], for which the MIC in [29] was 29 µM (≈ 32 µg/mL); in [30], no less than 232 µM; in experiment [31], 14.5 µM (≈ 16 µg/mL); in [8] it was 57.9 µM (≈ 64 µg/mL); in [32], no less than 57.9 µM; in experiment [33], 29 µM (≈ 32 µg/mL). Besides, the minimum inhibitory concentration (MIC) in experiment [28] was 14.5 µM (≈ 16 µg/mL).
